Structures can show the parent of a compound that is named as a salt.

human σ1 receptor, sequence (Q99720 whole entry): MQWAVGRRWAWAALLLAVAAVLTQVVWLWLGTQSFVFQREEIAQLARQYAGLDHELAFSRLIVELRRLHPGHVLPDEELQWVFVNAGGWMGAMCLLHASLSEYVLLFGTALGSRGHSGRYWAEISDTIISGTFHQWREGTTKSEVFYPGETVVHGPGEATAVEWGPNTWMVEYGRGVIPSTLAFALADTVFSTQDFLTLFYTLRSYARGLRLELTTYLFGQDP

The first assay addresses human σ1 receptor (Homo sapiens, UniProt Q99720). The experiment in a line: biochemical. Type of assay: binding. Also on record: μ and σ1 dual binding: key to the marks not given beside the values.
Conditions: not given
`CC1OC2(CCN(CCc3ccccc3O)CC2)CN(c2ccccc2)C1=O` (stereo not shown) [Example 295, 9-(2-hydroxyphenethyl)-2-methyl-4-phenyl-1-oxa-4,9-diazaspiro[5.5]undecan-3-one] yielded a Ki of under 100 nM.
As to `COc1cccc(N2CC3(CCN(CCc4ccccc4)CC3)OC(C)C2=O)n1` (stereo not shown) [Example 211, 4-(6-methoxypyridin-2-yl)-2-methyl-9-phenethyl-1-oxa-4,9-diazaspiro[5.5]undecan-3-one hydrochloride], the Ki was under 500 nM.
For `CC(C)C1OC2(CCN(CCc3csc(N)n3)CC2)CN(c2ccccc2F)C1=O` (stereo not shown) [Example 306, 9-(2-(2-aminothiazol-4-yl)ethyl)-4-(2-fluorophenyl)-2-isopropyl-1-oxa-4,9-diazaspiro[5.5]undecan-3-one dihydrochloride], the “μ and σ1 dual binding” value is given as “++”.
As for `CC1OC2(CCN(Cc3ccccc3)CC2)CN(c2ccccc2)C1=O.Cl` (stereo not shown) [Example 16, 9-benzyl-2-methyl-4-phenyl-1-oxa-4,9-diazaspiro[5.5]undecan-3-one hydrochloride], the “μ and σ1 dual binding” value is on record as “++”.
The molecule `CNS(=O)(=O)c1cccc(CCN2CCC3(CC2)CN(c2ccccc2)C(=O)C(C)O3)c1` (stereo not shown) [Example 93, N-methyl-3-(2-(2-methyl-3-oxo-4-phenyl-1-oxa-4,9-diazaspiro[5.5]undecan-9-yl)ethyl)benzenesulfonamide] showed a Ki of under 500 nM.
For the molecule `COc1ccc(N2CC3(CCN(CCc4ccccc4)CC3)OC(C)C2=O)cc1.Cl` (stereo not shown) [Example 1, 4-(4-methoxyphenyl)-2-methyl-9-phenethyl-1-oxa-4,9-diazaspiro[5.5]undecan-3-one hydrochloride], the “μ and σ1 dual binding” value is “++”.
On to `CC1OC2(CCN(CCc3cccc(OCCO)c3)CC2)CN(c2ccccc2F)C1=O` (stereo not shown) [Example 282, 4-(2-fluorophenyl)-9-(3-(2-hydroxyethoxy)phenethyl)-2-methyl-1-oxa-4,9-diazaspiro[5.5]undecan-3-one], for which the Ki was under 100 nM.
`CC1OC2(CCN(CCc3ncccc3Cl)CC2)CN(c2ccccc2)C1=O` (stereo not shown) [Example 37, 9-(2-(3-chloropyridin-2-yl)ethyl)-2-methyl-4-phenyl-1-oxa-4,9-diazaspiro[5.5]undecan-3-one hydrochloride] yielded a Ki of under 500 nM.
As for `CC1OC2(CCN(CCc3ccccc3)CC2)CN(c2ccn(C)n2)C1=O.Cl` (stereo not shown) [Example 20, 2-methyl-4-(1-methyl-1H-pyrazol-3-yl)-9-phenethyl-1-oxa-4,9-diazaspiro[5.5]undecan-3-one hydrochloride], the “μ and σ1 dual binding” value is reported as “++”.
Turning to `CC1OC2(CCN(CCc3ccccc3)CC2)CN(c2ccc3c(c2)OCO3)C1=O` (stereo not shown) [Example 202, 4-(benzo[d][1,3]dioxol-5-yl)-2-methyl-9-phenethyl-1-oxa-4,9-diazaspiro[5.5]undecan-3-one hydrochloride], the Ki was under 500 nM.
As to `CC1OC2(CCN(CCc3ccnc(C(F)(F)F)c3)CC2)CN(c2ccccc2)C1=O.Cl` (stereo not shown) [Example 40, 2-methyl-4-phenyl-9-(2-(2-(trifluoromethyl)pyridin-4-yl)ethyl)-1-oxa-4,9-diazaspiro[5.5]undecan-3-one hydrochloride], the “μ and σ1 dual binding” value is reported as “++”.

The assay is the same for the next values; noted with them: combined class from Ki-σ1 (human σ1 receptor, A1) and Ki-μ (human μ-opioid receptor, A2) radioligand binding.
Consider `O=C1COC2(CCN(Cc3ccccc3)CC2)CN1c1cccc(O)c1` [Example 287, 9-benzyl-4-(3-hydroxyphenyl)-1-oxa-4,9-diazaspiro[5.5] undecan-3-one], for which the “μ and σ1 dual binding” value is “++”.
On to `CC1OC2(CCN(CCn3cccn3)CC2)CN(c2ccccc2)C1=O` (stereo not shown) [Example 56], for which the “μ and σ1 dual binding” value is given as “++”.
For the molecule `COc1cccc(N2CC3(CCN(Cc4ccccc4)CC3)OCC2=O)c1` [Example 6, 9-benzyl-4-(3-methoxyphenyl)-1-oxa-4,9-diazaspiro[5.5]undecan-3-one], the “μ and σ1 dual binding” value was “++”.
Regarding `CC1OC2(CCN(CCc3cccc(NS(N)(=O)=O)c3)CC2)CN(c2ccccc2)C1=O` (stereo not shown) [Example 265, N-[3-(2-{2-methyl-3-oxo-4-phenyl-1-oxa-4,9-diazaspiro[5.5]undecan-9-yl}ethyl)phenyl]aminosulfonamide], the “μ and σ1 dual binding” value is recorded as “++”.
On the same count and under the same terms, with `O=C1COC2(CCN(Cc3ccccc3)CC2)CN1c1ccccc1O` [Example 285, 9-benzyl-4-(2-hydroxyphenyl)-1-oxa-4,9-diazaspiro[5.5]undecan-3-one] the entry was “++”.

The assay is the same for the next values; noted with them: read-out: μ and σ1 dual binding.
Take `CC1OC2(CCN(CCc3ccccc3)CC2)CN(c2cccc(N)c2)C1=O` (stereo not shown) [Example 227, 4-(3-aminophenyl)-2-methyl-9-phenethyl-1-oxa-4,9-diazaspiro[5.5]undecan-3-one]: the Ki is over 500 nM.
The same measure, in the same setting: the same measure for `COC(=O)CCN1CCC2(CC1)CN(c1ccccc1)C(=O)C1(CC1)O2` [Example 348, methyl 3-(13-oxo-12-phenyl-4-oxa-8,12-diazadispiro[2.1.5.3]tridecan-8-yl)propanoate]: over 500 nM; for `O=C(CN1CCC2(CC1)CN(Cc1ccc(C(F)(F)F)cn1)C(=O)CO2)c1ccccc1` [Example 99, 9-(2-oxo-2-phenylethyl)-4-((5-(trifluoromethyl)pyridin-2-yl)methyl)-1-oxa-4,9-diazaspiro[5.5]undecan-3-one]: over 500 nM.
As to `CC1OC2(CCN(CCc3ccc(F)cc3)CC2)CN(c2ccccc2)C1=O` (stereo not shown) [Example 55, 9-(4-fluorophenethyl)-2-methyl-4-phenyl-1-oxa-4,9-diazaspiro[5.5]undecan-3-one hydrochloride], the Ki was under 100 nM.
With `CC1OC2(CCN(CC(=O)N3CCOCC3)CC2)CN(Cc2ccc(C(F)(F)F)cn2)C1=O` (stereo not shown) [Example 124, 2-methyl-9-(2-morpholino-2-oxoethyl)-4-((5-(trifluoromethyl)pyridin-2-yl)methyl)-1-oxa-4,9-diazaspiro[5.5]undecan-3-one hydrochloride], the Ki is over 500 nM.
For `CC1OC2(CCN(CCc3cccc(C#N)c3)CC2)CN(c2ccccc2)C1=O` (stereo not shown) [Example 75, 3-(2-(2-methyl-3-oxo-4-phenyl-1-oxa-4,9-diazaspiro[5.5]undecan-9-yl)ethyl)benzonitrile hydrochloride], the Ki is under 100 nM.
On the same count and under the same terms, with `COc1cccc(N2CC3(CCN(CCc4ccccc4)CC3)OC(C)C2=O)c1` (stereo not shown) [Example 15, 4-(3-methoxyphenyl)-2-methyl-9-phenethyl-1-oxa-4,9-diazaspiro[5.5]undecan-3-one hydrochloride] the figure was under 500 nM; with `COC[C@H]1OC2(CCN(CCc3ccccc3)CC2)CN(c2ccccc2)C1=O` [Example 12b, (R)-2-(methoxymethyl)-9-phenethyl-4-phenyl-1-oxa-4,9-diazaspiro[5.5]undecan-3-one], under 100 nM; with `COC(=O)CC1OC2(CCN(CCc3ccccc3)CC2)CN(c2ccccc2)C1=O` (stereo not shown) [Example 14, methyl 2-(3-oxo-9-phenethyl-4-phenyl-1-oxa-4,9-diazaspiro[5.5]undecan-2-yl)acetate hydrochloride], under 100 nM.
Same read-out and setting: the same measure for `Nc1cccc(CN2CC3(CCN(CCc4ccccc4)CC3)OCC2=O)c1` [Example 233, 4-(3-aminobenzyl)-9-phenethyl-1-oxa-4,9-diazaspiro[5.5]undecan-3-one hydrochloride]: under 500 nM; for `O=C1CO[C@@]2(CCN(Cc3ccccc3)C2)CN1c1ccccc1` [Example 349, (R)-2-benzyl-9-phenyl-6-oxa-2,9-diazaspiro[4.5]decan-8-one]: over 500 nM; for `Nc1cccc(CN2CC3(CCN(CCc4ccccc4)CC3)OCC2=O)n1` [Example 104, 4-((6-aminopyridin-2-yl)methyl)-9-phenethyl-1-oxa-4,9-diazaspiro[5.5]undecan-3-one]: over 500 nM.
As to `CC1OC2(CCN(CCc3ccc(C#N)cn3)CC2)CN(c2ccccc2)C1=O` (stereo not shown) [Example 36, 6-(2-(2-methyl-3-oxo-4-phenyl-1-oxa-4,9-diazaspiro[5.5]undecan-9-yl)ethyl)nicotinonitrile hydrochloride], the Ki is over 500 nM.
`CC(=O)Nc1cccc(CCN2CCC3(CC2)CN(c2ccccc2)C(=O)C(C)O3)c1` (stereo not shown) [Example 243, N-(3-(2-(2-methyl-3-oxo-4-phenyl-1-oxa-4,9-diazaspiro[5.5]undecan-9-yl)ethyl)phenyl)acetamide]: the Ki was under 500 nM.
The same measure, in the same setting: with `CC(=O)Nc1cccc(CCN2CCC3(CC2)CN(c2ccccc2)C(=O)[C@@H](C)O3)c1` [Example 244b, (R)-N-(3-(2-(2-methyl-3-oxo-4-phenyl-1-oxa-4,9-diazaspiro[5.5]undecan-9-yl)ethyl)phenyl)acetamide hydrochloride] the figure was under 100 nM.
As for `CC1OC2(CCN(CCc3ncccc3F)CC2)CN(Cc2ccc(F)cn2)C1=O` (stereo not shown) [Example 47, 9-(2-(3-fluoropyridin-2-yl)ethyl)-4-((5-fluoropyridin-2-yl)methyl)-2-methyl-1-oxa-4,9-diazaspiro[5.5]undecan-3-one hydrochloride], the Ki is under 500 nM.
Take `COC[C@@H]1OC2(CCN(CCc3ccccc3)CC2)CN(c2ccccc2)C1=O` [Example 12a, (S)-2-(methoxymethyl)-9-phenethyl-4-phenyl-1-oxa-4,9-diazaspiro[5.5]undecan-3-one]: the Ki was under 500 nM.
In the case of `O=C1COC2(CCN(CCc3cccc([N+](=O)[O-])c3)CC2)CN1Cc1ccc(C(F)(F)F)cn1` [Example 103, 9-(3-nitrophenethyl)-4-((5-(trifluoromethyl)pyridin-2-yl)methyl)-1-oxa-4,9-diazaspiro[5.5]undecan-3-one], the Ki is over 500 nM.
For the molecule `CC1OC2(CCN(CCc3cn[nH]c3)CC2)CN(c2ccccc2)C1=O` (stereo not shown) [Example 147, 9-(2-(1H-pyrazol-4-yl)ethyl)-2-methyl-4-phenyl-1-oxa-4,9-diazaspiro[5.5]undecan-3-one], the Ki is over 500 nM.
As to `CC1OC2(CCN(CCc3ccccc3)CC2)CN(CC(C)(C)O)C1=O` (stereo not shown) [Example 183, 4-(2-hydroxy-2-methylpropyl)-2-methyl-9-phenethyl-1-oxa-4,9-diazaspiro[5.5]undecan-3-one], the Ki is over 500 nM.
Still for that read-out and setting: with `CC(C)(C)OC(=O)Nc1nc(CCN2CCC3(CC2)CN(c2ccccc2)C(=O)C2(CC2)O3)cs1` [Example 118, tert-butyl (4-(2-(13-oxo-12-phenyl-4-oxa-8,12-diazadispiro[2.1.5.3]tridecan-8-yl)ethyl)thiazol-2-yl)carbamate] the figure was over 500 nM.
